Reference: ChEMBL document CHEMBL1201862, “PubChem BioAssay data set” (2004)
Calls of active or inactive are those of the source. Cut-off read from the data, not from the text of the source, for most assays here: actives have a measured EC50 and inactives only a lower limit.

Columns and labels:
[1] = inhibitors of firefly luciferase expression or activity, dose response, H4 neuroglioma cells, luminescence (AID 1990); format: functional, cell-based
[2] = cells; format: functional, cell-based
[3] = Luminescence Cell-Based Dose Response HTS to Identify Inhibitors of 5'UTR Stem-Loop Driven Prion Protein mRNA Translation in H4 Neuroglioblastoma Cells. [Related pubchem assays: 1827 (Project Summary), 1813 (Primary HTS)]; format: functional
[4] = inhibitors of SNCA 5'UTR-driven reporter translation, confirmation, H4 neuroglioma cells, luminescence (AID 1988); format: functional, cell-based
[5] = cells; format: functional, cell-based; remark: listed apart in the source
[6] = tested on: INS1; test: beta cell apoptosis inhibitors, cytokine rescue, dose response, luminescence, retest (AID 449756); format: functional, cell-based; conditions: Rattus norvegicus;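 note: cell death triggered by IL-1 beta plus TNF-alpha plus IFN-gamma mixture; protective hits raise ATP signal compared with cytokine alone wells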
[7] = biological target: T1, Protein skinhead-1 (Caenorhabditis elegans, UniProt P34707); format: functional
T1 sequence (P34707 whole entry): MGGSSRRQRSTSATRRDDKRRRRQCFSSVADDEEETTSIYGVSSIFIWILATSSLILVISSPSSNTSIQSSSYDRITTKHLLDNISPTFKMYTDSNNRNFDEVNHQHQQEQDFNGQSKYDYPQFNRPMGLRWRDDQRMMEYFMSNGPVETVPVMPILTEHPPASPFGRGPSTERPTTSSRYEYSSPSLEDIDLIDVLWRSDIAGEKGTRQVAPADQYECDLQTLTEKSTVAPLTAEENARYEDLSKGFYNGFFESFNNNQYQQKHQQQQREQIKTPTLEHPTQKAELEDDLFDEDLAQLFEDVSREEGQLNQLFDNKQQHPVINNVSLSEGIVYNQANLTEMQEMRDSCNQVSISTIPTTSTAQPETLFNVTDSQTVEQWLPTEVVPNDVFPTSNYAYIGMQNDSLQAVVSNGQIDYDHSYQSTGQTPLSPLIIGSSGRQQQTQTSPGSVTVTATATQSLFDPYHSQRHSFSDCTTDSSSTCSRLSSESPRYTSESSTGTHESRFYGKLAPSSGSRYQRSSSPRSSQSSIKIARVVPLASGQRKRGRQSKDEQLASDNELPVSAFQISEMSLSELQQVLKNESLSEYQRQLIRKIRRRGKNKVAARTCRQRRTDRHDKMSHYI

[8] = biological target: T2, Heat shock factor protein 1 (Mus musculus, UniProt P38532); test: inhibition of MG132-induced HSE-luciferase signal, confirmation, cell-based, NIH3T3, luminescence, dose retest (AID 2382); format: functional;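 note: NIH3T3 fibroblasts with HSF1-driven luciferase reporter stressed by proteasome inhibitor MG132; luminescence from HSF1-driven luciferase expression after 8 hours of MG132 stress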
T2 sequence (P38532 whole entry): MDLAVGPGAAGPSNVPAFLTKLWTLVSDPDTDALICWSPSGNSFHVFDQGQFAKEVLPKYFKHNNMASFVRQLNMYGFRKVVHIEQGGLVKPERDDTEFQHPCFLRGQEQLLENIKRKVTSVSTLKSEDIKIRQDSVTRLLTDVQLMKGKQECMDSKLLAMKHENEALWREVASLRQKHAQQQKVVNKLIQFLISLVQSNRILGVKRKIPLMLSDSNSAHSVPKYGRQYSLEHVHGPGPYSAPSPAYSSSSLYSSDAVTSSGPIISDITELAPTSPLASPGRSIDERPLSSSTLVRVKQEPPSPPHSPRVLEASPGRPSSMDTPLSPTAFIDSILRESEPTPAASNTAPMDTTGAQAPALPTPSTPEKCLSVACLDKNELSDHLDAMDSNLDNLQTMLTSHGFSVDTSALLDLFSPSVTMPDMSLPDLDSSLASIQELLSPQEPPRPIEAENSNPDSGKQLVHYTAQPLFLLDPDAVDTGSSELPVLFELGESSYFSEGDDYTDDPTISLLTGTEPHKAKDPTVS

[9] = biological target: Cytochrome P450 2D6 (Homo sapiens, UniProt P10635);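 note: CYP2D6 member of a cytochrome P450 panel assay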
[10] = biological target: T3, Microphthalmia-associated transcription factor (Homo sapiens, UniProt O75030); test: TRPM1 promoter luciferase signal decrease, dose response, MITF inhibitor project, cell-based, SK-MEL-5, cherry-picked, set 3 (AID 493073); format: functional
T3 sequence (O75030 whole entry): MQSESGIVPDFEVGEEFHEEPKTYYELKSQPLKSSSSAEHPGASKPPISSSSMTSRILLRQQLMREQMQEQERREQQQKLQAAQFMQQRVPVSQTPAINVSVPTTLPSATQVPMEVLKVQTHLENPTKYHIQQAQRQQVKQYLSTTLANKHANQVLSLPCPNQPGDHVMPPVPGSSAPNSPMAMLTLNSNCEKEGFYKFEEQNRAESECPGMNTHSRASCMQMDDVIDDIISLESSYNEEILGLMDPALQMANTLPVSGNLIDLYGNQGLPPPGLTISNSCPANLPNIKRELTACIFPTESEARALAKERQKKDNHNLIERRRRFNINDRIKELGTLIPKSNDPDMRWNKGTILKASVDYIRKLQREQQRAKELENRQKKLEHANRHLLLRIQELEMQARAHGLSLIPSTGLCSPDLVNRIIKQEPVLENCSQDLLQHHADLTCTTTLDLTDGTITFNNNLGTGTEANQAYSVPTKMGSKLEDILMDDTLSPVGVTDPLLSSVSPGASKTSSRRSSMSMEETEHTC

[11] = biological target: T2, Heat shock factor protein 1; test: HSF1 potentiators in luciferase reporter cells, confirmation, cell-based, NIH3T3, luminescence, dose retest (AID 435004); format: functional;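 note: stress induced by proteasome inhibitor MG132 added 30 min after compound; luciferase reporter driven by HSF1 response element in NIH3T3 cells; actives raise luminescence as potentiators of the MG132 stress response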
[12] = biological target: Genome polyprotein (dengue virus type 2, UniProt P29990); test: Dengue-2 NS5 methyltransferase inhibitors, primary screen, biochemical, confirmation dose response (AID 588689); format: functional
[13] = control 3'UTR Renilla luciferase suppression, dose response, counter-screen for Shn3 inhibitor project, cell-based, Clone20-Shn3RL, cherry-picked (AID 624133); format: functional
[14] = NIH-3T3 fibroblast cytotoxicity, dose response, cytotoxicity control, cell-based, fluorescence, Alamar Blue, secondary assay (AID 2327); format: functional;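 note: NIH-3T3 mouse fibroblasts cultured with fluconazole at 8 µg/mL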
[15] = biological target: T4, RNA-binding protein pos-1 (Caenorhabditis elegans, UniProt G5EF15); test: inhibitors of POS-1/mex-3 RNA binding, dose response, biochemical, fluorescence polarization (AID 1964);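 note: purified POS-1 fused to maltose binding protein made in E. coli; potency of compounds blocking POS-1 binding to fluorescent RNA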
T4 sequence (G5EF15 whole entry): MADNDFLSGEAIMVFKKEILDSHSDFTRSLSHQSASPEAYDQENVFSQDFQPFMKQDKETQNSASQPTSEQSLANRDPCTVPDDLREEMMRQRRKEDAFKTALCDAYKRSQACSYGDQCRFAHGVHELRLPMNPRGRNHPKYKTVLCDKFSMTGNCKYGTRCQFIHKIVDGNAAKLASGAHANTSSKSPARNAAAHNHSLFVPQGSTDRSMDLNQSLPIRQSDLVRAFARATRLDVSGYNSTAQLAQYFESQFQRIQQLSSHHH

[16] = biological target: T5, Zinc finger protein mex-5 (Caenorhabditis elegans, UniProt Q9XUB2); test: MEX-5/TCR-2 RNA interaction inhibitors, dose response, biochemical, C. elegans, fluorescence polarization (AID 1960)
T5 sequence (Q9XUB2 whole entry): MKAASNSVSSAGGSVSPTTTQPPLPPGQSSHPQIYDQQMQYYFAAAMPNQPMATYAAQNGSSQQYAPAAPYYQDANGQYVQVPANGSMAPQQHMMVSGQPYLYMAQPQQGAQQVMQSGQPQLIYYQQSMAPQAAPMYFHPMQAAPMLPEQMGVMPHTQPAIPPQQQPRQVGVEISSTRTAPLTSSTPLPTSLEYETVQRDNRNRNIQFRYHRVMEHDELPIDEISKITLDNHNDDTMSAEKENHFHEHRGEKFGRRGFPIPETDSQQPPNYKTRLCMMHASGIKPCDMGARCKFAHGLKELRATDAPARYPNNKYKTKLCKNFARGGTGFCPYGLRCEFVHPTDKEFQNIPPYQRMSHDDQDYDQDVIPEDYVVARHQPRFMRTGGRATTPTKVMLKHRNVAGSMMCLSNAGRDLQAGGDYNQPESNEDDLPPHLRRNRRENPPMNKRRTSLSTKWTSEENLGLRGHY

Sequence of Genome polyprotein (P29990 2492-3391 limits assumed): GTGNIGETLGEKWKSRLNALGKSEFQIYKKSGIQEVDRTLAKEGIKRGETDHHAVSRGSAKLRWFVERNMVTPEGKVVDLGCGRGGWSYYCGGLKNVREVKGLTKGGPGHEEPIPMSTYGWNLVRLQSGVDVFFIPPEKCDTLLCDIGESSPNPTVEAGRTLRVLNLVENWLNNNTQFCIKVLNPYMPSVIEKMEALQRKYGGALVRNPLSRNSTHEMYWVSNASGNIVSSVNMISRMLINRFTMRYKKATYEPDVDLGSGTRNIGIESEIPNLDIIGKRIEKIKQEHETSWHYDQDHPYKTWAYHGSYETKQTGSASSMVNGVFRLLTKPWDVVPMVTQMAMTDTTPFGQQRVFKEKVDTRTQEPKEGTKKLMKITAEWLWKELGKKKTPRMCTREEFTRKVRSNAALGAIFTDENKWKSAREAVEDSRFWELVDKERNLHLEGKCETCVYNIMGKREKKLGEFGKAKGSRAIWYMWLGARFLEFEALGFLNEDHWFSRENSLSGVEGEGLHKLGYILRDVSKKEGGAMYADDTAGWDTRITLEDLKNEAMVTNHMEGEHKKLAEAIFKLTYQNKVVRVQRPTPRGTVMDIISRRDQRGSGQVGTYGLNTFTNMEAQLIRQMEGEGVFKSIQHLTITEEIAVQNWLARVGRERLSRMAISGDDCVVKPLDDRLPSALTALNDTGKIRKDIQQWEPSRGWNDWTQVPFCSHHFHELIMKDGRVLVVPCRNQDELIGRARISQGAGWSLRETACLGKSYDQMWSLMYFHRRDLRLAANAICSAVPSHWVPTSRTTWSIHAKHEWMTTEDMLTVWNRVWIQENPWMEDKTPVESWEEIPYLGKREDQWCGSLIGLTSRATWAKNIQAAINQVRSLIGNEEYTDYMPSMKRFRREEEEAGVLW
Sequence of Cytochrome P450 2D6 (P10635 whole entry): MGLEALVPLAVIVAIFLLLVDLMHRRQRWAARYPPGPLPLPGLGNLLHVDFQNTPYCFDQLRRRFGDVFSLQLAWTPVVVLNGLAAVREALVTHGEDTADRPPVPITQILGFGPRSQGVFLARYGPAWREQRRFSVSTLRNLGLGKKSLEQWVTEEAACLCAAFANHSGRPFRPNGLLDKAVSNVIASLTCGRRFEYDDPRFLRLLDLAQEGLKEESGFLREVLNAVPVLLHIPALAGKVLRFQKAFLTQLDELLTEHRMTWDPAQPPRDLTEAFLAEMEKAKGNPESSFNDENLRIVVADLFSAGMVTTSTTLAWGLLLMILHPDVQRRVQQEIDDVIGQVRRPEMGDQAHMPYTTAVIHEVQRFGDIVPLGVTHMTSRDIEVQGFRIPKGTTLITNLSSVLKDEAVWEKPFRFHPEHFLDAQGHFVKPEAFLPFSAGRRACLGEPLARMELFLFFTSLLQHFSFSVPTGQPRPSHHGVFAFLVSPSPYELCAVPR

## O=C(N/N=C/c1cc([N+](=O)[O-])ccc1O)c1cccc2cc[nH]c12
[1]
  EC50: > 120 µM (not active)
[2]
  EC50: 311 µM (active)
[3]
  EC50: 10.3 µM (active)
[4]
  EC50: 14.8 µM (active)
[5]
  EC50: 24.6 µM (active)
[6]
  AC50: 2.02 µM (active)

## CCCS(=O)(=O)NC(=O)C1(C)CCN(C(=O)c2cccc(C)c2C)C1 (stereo unspecified)
[7]
  IC50: > 100 µM (inactive)

## CCn1nc(C(=O)OCC(=O)NC(C)C)c2ccccc2c1=O
[2]
  EC50: > 350 µM (not active)
[8]
  EC50: > 195 µM (not active)
[5]
  EC50: > 350 µM (not active)

## O=C(COc1ccc(Cl)cc1Cl)N/N=C/CCc1ccccc1
[2]
  EC50: > 350 µM (not active)
[5]
  EC50: > 350 µM (not active)
[9]
  AC50: 3.16 µM (inconclusive)

## Clc1ccc(SCc2cc(-c3ccccc3)on2)cc1
[7]
  IC50: > 100 µM (inactive)

## CC1(C)C(=Cc2ccccc2)C(=O)c2ccccc21
[7]
  IC50: 18 µM (active)

## Cc1nc2ccccc2cc1OCc1ccc(Cl)cc1
[7]
  IC50: 57.9 µM (inactive)

## COc1cccc(NC(=O)c2cc3c(=O)n4ccccc4nc3n(CC(C)C)c2=N)c1
[10]
  AC50: 7.02 µM (active)

## Cc1cc(-c2nnc(CCC(=O)N(C)Cc3cccc4ccccc34)o2)no1
[11]
  EC50: > 260 µM (inactive)

## COc1ccc(-c2csc(NC(=O)c3ccccc3Br)c2C(=O)O)cc1
[12]
  IC50: 74.4 µM (active)

## COc1cc(NS(=O)(=O)c2ccc(Br)cc2)c(OC)cc1NC(=O)c1ccco1
[7]
  IC50: > 100 µM (inactive)

## CN1C(=O)C2(c3ccccc31)N(C)CC(c1ccccn1)C21SC(=S)N(Cc2ccco2)C1=O (stereo unspecified)
[11]
  EC50: > 260 µM (inactive)

## OC(c1ccccc1)C(O)C(c1ccccc1)N1CCCCC1 (stereo unspecified)
[13]
  AC50: 23.1 µM (active)

## Cc1c(Cl)c(C(=O)NC2CCCC2)nn1C
[11]
  EC50: > 260 µM (inactive)

## COCCNC(=O)C(c1ccc(C)o1)N(Cc1ccc(OC)cc1)C(=O)Cn1nnc2ccccc21 (stereo unspecified)
[7]
  IC50: > 100 µM (inactive)

## Cc1ccc(/C=C(\C#N)c2nn(-c3ccccc3)c(N)c2C#N)cc1
[2]
  EC50: > 350 µM (not active)
[5]
  EC50: > 350 µM (not active)

## C=CCn1c(COc2ccc(F)cc2)nnc1SCC(=O)Nc1cccc(S(N)(=O)=O)c1
[14]
  EC50: > 160 µM (inactive)

## Cc1cc(C)c2c(N)c(C(=O)Nc3ccccc3F)sc2n1
[2]
  EC50: > 350 µM (not active)
[5]
  EC50: 131 µM (active)

## COc1ccc(C2(c3ccc(OC)cc3)NC(=O)N(CC(=O)N(C)c3ccccc3)C2=O)cc1
[11]
  EC50: > 260 µM (inactive)

## Oc1ccc(N=Nc2ccccc2-c2nn[nH]n2)c(O)c1
[15]
  EC50: > 300 µM (not active)
[16]
  EC50: > 300 µM (not active)
[12]
  IC50: > 100 µM (active)

## O=C(COC(=O)c1ccccc1C(=O)c1ccccc1)Nc1cccc([N+](=O)[O-])c1
[11]
  EC50: > 260 µM (inactive)

## O=C(O)/C(=C\c1ccc(Cl)c([N+](=O)[O-])c1)c1ccc(S(=O)(=O)N2CCCCC2)s1
[12]
  IC50: 81.4 µM (active)

## Brc1ccc(CSc2nnc(-c3ccco3)o2)cc1
[7]
  IC50: 8.76 µM (active)

## COc1ccccc1CN1CC(C(=O)NCCc2ncccc2C)CCC1=O (stereo unspecified)
[11]
  EC50: > 260 µM (inactive)

## COc1cc(NS(=O)(=O)c2ccc(C)cc2)c2c(c1N)C(=O)c1ccccc1C2=O
[7]
  IC50: > 100 µM (inactive)

## CCCN(CC(=O)Nc1ccc(Cl)cc1Cl)C(=O)/C=C/c1ccco1
[11]
  EC50: 17.6 µM (active)

## O=S(=O)([O-])CCC[n+]1c(SCCCS(=O)(=O)O)sc2ccc(Cl)cc21
[12]
  IC50: > 100 µM (active)

## O=C(O)c1cccc(Nc2nc3ccccc3nc2NS(=O)(=O)c2cccs2)c1
[12]
  IC50: 66.3 µM (active)

## COc1cc(-c2nnc3sc(Cc4ccc(Cl)cc4)nn23)cc(OC)c1OC
[11]
  EC50: > 260 µM (inactive)

## CCOC(=O)c1c(-c2ccc(C)o2)csc1NC(=O)CSc1nncs1
[11]
  EC50: > 260 µM (inactive)

## C=CCn1c(N2CCCCCC2)nc2c1c(=O)[nH]c(=O)n2C
[2]
  EC50: > 350 µM (not active)
[5]
  EC50: > 350 µM (not active)

## COc1ccccc1CCC(=O)OCC(=O)Nc1c(Br)cc(C)cc1Br
[11]
  EC50: > 260 µM (inactive)
